# According to patent publication US20060160197A1 (priority 2004, published 2006):
# Key:
# Type in all cases: physicochemical
# [1] = Example 1 reactive solvent extraction, 70% Alamine 336/10% MIBK/20% kerosene, 25° C.; details: pH 2 to 3
# Text: A water-immiscible organic solvent (i.e., “first phase”) is subsequently mixed with the second phase, and forms a two-phase system (a water immiscible organic phase and an aqueous phase). The glycolic acid in the second phase forms a complex with the tertiary trialkyl amine in the first phase.
# (§1) A variety of analytical methods can be employed to analyze the reactants and products produced using the present methods include HPLC, GC, ion selective electrodes, MS, NMR, etc. HPLC was used to measure glycolic acid and various related products. Briefly, samples are diluted with water (as needed to be within HPLC detection range) and mixed 1:1 with 0.2 M n-propanol in water (HPLC internal standard). HPLC Analytical Method: (BioRad HPX 87H ion exclusion column (BioRad, Hercules, Calif.), 300 mm×7.8 mm; 0.01 N H2SO4 mobile phase; 1.0 mL/min flow at 50° C.; 10 μL injection volume; RI detector and UV 210 nm, 20 min analysis time). HPLC Equipment: (Waters 2695 ‘Alliance’ Separations Module, 2410 Refractive Index Detector, 2487 Dual λ Absorbance Detector and Empower Pro Software (Waters Corp, Milford, Mass.).
# Solvent Extraction Using Approximately 70% C8-C10 Trialkylamine in Combination with 10% Methyl Isobutyl Ketone and 20% Kerosene at 25° C.
# Into a 4-mL glass reactor equipped with magnetic stir bar was placed 1 mL of a mixed solvent containing 70% (volume/volume) of trialkyl amine (Alamine® 336; Cognis Corp., Cincinnati, Ohio), 10% (volume/volume) methyl isobutyl ketone (MIBK) and 20% (volume/volume) kerosene. The pH of an aqueous solution of ammonium glycolate (5 wt % to 40 wt %) was adjusted to about pH 2 to 3 with concentrated sulfuric acid (H2SO4), then 1 mL of the resulting aqueous solution was added to the reactor. The resulting mixture was stirred for 30 minutes at 25° C.
# [2] = Example 3 reactive solvent extraction, 70% Alamine 336/10% MIBK/20% kerosene, 75° C.; details: pH 2 to 3
# Protocol: as §1
# Solvent Extraction Using Approximately 70% C8-C10 Trialkylamine in Combination with 10% Methyl Isobutyl Ketone and 20% Kerosene at 75° C.
# Into a 4-mL glass reactor equipped with magnetic stir bar was placed 1 mL of a mixed solvent containing 70% (volume/volume) Alamine® 336 (Cognis), 10% (volume/volume) methyl isobutyl ketone (MIBK) and 20% (volume/volume) kerosene. The pH of an aqueous solution of ammonium glycolate (5 wt % to 40 wt %) was adjusted to pH 2 to 3 with concentrated sulfuric acid, then 1 mL of the resulting aqueous solution was added to the reactor. The resulting mixture was stirred for 30 minutes at 75° C.
# [3] = Example 5 reactive solvent extraction, 90% Alamine 336/10% MIBK, 75° C.; details: pH 2 to 3
# Protocol: as §1
# Solvent Extraction Using Approximately 90% C8-C10 Trialkylamine in Combination with 10% Methyl Isobutyl Ketone at 75° C.
# Into a 4-mL glass reactor equipped with magnetic stir bar was placed 1 mL of a mixed solvent containing 90% (volume/volume) Alamine® 336 (Cognis) and 10% (volume/volume) methyl isobutyl ketone (MIBK). The pH of an aqueous solution of ammonium glycolate (5 wt % to 40 wt %) was adjusted to pH 2 to 3 with concentrated sulfuric acid, then 1 mL of the resulting aqueous solution was added to the reactor. The resulting mixture was stirred for 30 minutes at 75° C.
# [4] = Example 18 back extraction using water from loaded solvent (70% Alamine 336/10% MIBK/20% kerosene), 140° C.; details: back extraction into deionized water, 40 psig nitrogen
# Protocol: as §1
# Following the procedures in Example 1, into a 1-L cylindrical glass vessel on an extraction mixer (mix by rotating back and forth vertically) was placed 100 mL of a mixed solvent containing 70% (volume/volume) Alamine® 336 (Cognis), 10% (volume/volume) methyl isobutyl ketone (MIBK) and 20% (volume/volume) kerosene. The pH of an aqueous solution of ammonium glycolate (10 wt % to 50 wt %) was adjusted to approximately pH 2 to 3 with concentrated sulfuric acid, then 100 mL of the resulting aqueous solution was added to the extraction mixer. The resulting mixture was stirred for 60 minutes at room temperature. […] The organic phase was collected and used in the back extraction. This organic phase containing glycolic acid is referred as “loaded solvent” below.
# Back Extraction Using Water from a Loaded Solvent of Approximately 70% C8-C10 Trialkylamine in Combination with 10% Methyl Isobutyl Ketone and 20% Kerosene
# Into a 85-mL pressure reaction glass tube (pressure reaction vessel, from Andrews Glass Co.) equipped with magnetic stir bar and double dip tubes was placed 10 mL deionized water and 10 mL of the loaded solvent (see Example 16). The vessel was then closed, and the headspace purged with nitrogen. The resulting mixture was stirred for 60 minutes at 140° C. under 40 psig (˜275.8 kPa) nitrogen. The stirring was stopped and the two phases allowed to separate at 140° C., then the organic phase was sampled under pressure through the top dip tube into a Hoke cylinder, and aqueous phases was sampled under pressure through the bottom dip tube into another Hoke cylinder.
# [5] = Example 21 back extraction with aqueous glycolic acid from loaded solvent (70% trialkylamine/30% toluene), 120° C.; details: 70% C8-C10 trialkylamine/30% toluene, 40 psig nitrogen
# Protocol: as §1
# Back Extraction from a Loaded Solvent of Approximately 70% C8-C10 Trialkylamine in Combination with 30% Toluene
# The vessel was then closed, and the headspace purged with nitrogen. The resulting mixture was stirred for 60 minutes at 120° C. under 40 psig (˜275.8 kPa) nitrogen. The stirring was stopped and the two phases allowed to separate at 120° C., then the organic phase was sampled under pressure through the top dip tube into a Hoke cylinder, and aqueous phases was sampled under pressure through the bottom dip tube into another Hoke cylinder.
# [6] = initial 3.6 wt % glycolic acid in aqueous phase
# [7] = initial 8.5 wt % glycolic acid in aqueous phase
# [8] = initial 12.1 wt % glycolic acid in aqueous phase
# [9] = initial 16.1 wt % glycolic acid in aqueous phase
# [10] = initial 20.6 wt % glycolic acid in aqueous phase
# [11] = initial 25.1 wt % glycolic acid in aqueous phase
# [12] = initial 29.1 wt % glycolic acid in aqueous phase
# [13] = initial 32.8 wt % glycolic acid in aqueous phase
compound,measurement,setting,value
O=C(O)CO [glycolic acid],Partition coefficient of glycolic acid (organic wt %/aqueous wt %),[1]; [6],1.1
same,Partition coefficient of glycolic acid (organic wt %/aqueous wt %),[1]; [7],1.1
same,Partition coefficient of glycolic acid (organic wt %/aqueous wt %),[1]; [8],1.0
same,Partition coefficient of glycolic acid (organic wt %/aqueous wt %),[1]; [9],0.94
same,Partition coefficient of glycolic acid (organic wt %/aqueous wt %),[1]; [10],0.90
same,Partition coefficient of glycolic acid (organic wt %/aqueous wt %),[1]; [11],0.85
same,Partition coefficient of glycolic acid (organic wt %/aqueous wt %),[1]; [12],0.73
same,Partition coefficient of glycolic acid (organic wt %/aqueous wt %),[1]; [13],0.67
same,Partition coefficient (wt % org./wt % aq.),[2]; [6],0.16
same,Partition coefficient (wt % org./wt % aq.),[2]; [7],0.22
same,Partition coefficient (wt % org./wt % aq.),[2]; [10],0.49
same,Partition coefficient (wt % org./wt % aq.),[2]; [11],0.56
same,Partition coefficient (wt % org./wt % aq.),[2]; [12],0.54
same,Partition coefficient (wt % org./wt % aq.),[2]; [13],0.52
same,Partition coefficient (wt % org./wt % aq.),[3]; [6],0.75
same,Partition coefficient (wt % org./wt % aq.),[3]; [7],0.70
same,Partition coefficient (wt % org./wt % aq.),[3]; [8],0.76
same,Partition coefficient (wt % org./wt % aq.),[3]; [9],0.73
same,Partition coefficient (wt % org./wt % aq.),[3]; [10],0.79
same,Partition coefficient (wt % org./wt % aq.),[3]; [11],0.87
same,Partition coefficient (wt % org./wt % aq.),[3]; [12],0.84
same,Partition coefficient (wt % org./wt % aq.),[3]; [13],0.86
same,Partition coefficient (wt % org./wt % aq.),[4]; initial 3.9 wt % glycolic acid in loaded solvent,0.48
same,Partition coefficient (wt % org./wt % aq.),[4]; initial 11.3 wt % glycolic acid in loaded solvent,0.37
same,Partition coefficient (wt % org./wt % aq.),[4]; initial 16.0 wt % glycolic acid in loaded solvent,0.34
same,Partition coefficient (wt % org./wt % aq.),[4]; initial 17.5 wt % glycolic acid in loaded solvent,0.35
same,Partition coefficient (wt % org./wt % aq.),"[5]; initial 20.0 wt % glycolic acid in aqueous phase, 14.2 wt % in loaded solvent",0.54
same,Partition coefficient (wt % org./wt % aq.),"[5]; initial 40.0 wt % glycolic acid in aqueous phase, 15.7 wt % in loaded solvent",0.54
